According to patent US20250163484A1, “Methods for Incorporating Azido Groups in Bacterial Capsular Polysaccharides” (PFIZER INC., priority 2022, published 2025):
Where “and” joins values, the source holds several entries; their conditions need not be identical. Equal values may be shown once. Read-outs that look alike come from different tables or passages of the source.

Columns and labels:
Format in all cases: cell-based, Streptococcus pneumoniae serotype 14
S. pneumoniae T14 [1] = assay: Growth of S. pneumoniae T14 in fermentation with azido sugar (OD600); conditions: for MaxOD600 nm: production media + 2AzGlc (10 mM)
S. pneumoniae T14 [2] = assay: as above; conditions: production media + 2AzGlc (10 mM)
Method: FIGS. 1A-1D. Screen for azido sugar incorporation into S. pneumoniae T14 capsule polysaccharide. Vessels (100 mL working volume) were inoculated with a 10-fold dilution of bacteria grown in seed expansion media supplemented with Galactose (30 g/L) (OD600=1.0-1.2) and incubated at 36° C. and 173 rpm with an air overlay of 1.5 SLPH. Media (production medium supplemented with Glucose (30 g/L) (black bars) or production medium supplemented with Galactose (30 g/L) (grey bars)) pH was controlled at 7.0. Bacteria were grown until the ΔOD600≥0 for >30 minutes, then lysed with 0.1% NLS for 30 minutes. Growth was measured offline using a spectrophotometer blanked with PBS at 600 nm. (FIG. 1A) azido incorporation into polysaccharide was then quantified via fluorescent labeling (FL) with normalization to refractive index (RI). MaxOD and End Of Fermentation time (EOF) are provided in (FIG. 1B) and (FIG. 1C), respectively. Polysaccharide was extracted using EtOH and CaCl2 and analyzed via SEC-RI for (FIG. 1D) polysaccharide titer. n=1-4, error bars=+/−StDev.
To identify azido sugars that could incorporate into S. pneumoniae T14 capsule, we grew S. pneumoniae T14 (serotype 14) in the production medium supplemented with various azido sugars (Table 3) supplied at 1 mM. We performed our screen using both production medium supplemented with Glucose (dextrose, 30 g/L) and production medium supplemented with Galactose (30 g/L).
(§1) We tested the impact of 2AzGlc concentration on S. pneumoniae T14 growth, polysaccharide production, and azido incorporation by growing the bacteria in production media (supplemented with Glucose (dextrose, 30 g/L)) with various concentrations of 2AzGlc (0, 1, 5, 10, 20, 40, and 60 mM).
To improve the incorporation of 2AzGlc into S. pneumoniae T14 capsule in production media (supplemented with Glucose (dextrose, 30 g/L)), we performed a 16-vessel DOE designed to test the impact of pH (6.33, 6.66, 7.00, and 7.33) and agitation (100, 200, and 300 rpm) on four response variables (MaxOD, Poly Titer, Poly Size, and FL/RI).

S. pneumoniae T14 [3] = conditions: for Polysacch. Titer: production medium + Galactose (30 g/L) + 2AzGlc (0.25 mM)
Method: FIGS. 1A-1D. Screen for azido sugar incorporation into S. pneumoniae T14 capsule polysaccharide. […] Bacteria were grown until the ΔOD600≥0 for >30 minutes, then lysed with 0.1% NLS for 30 minutes. Growth was measured offline using a spectrophotometer blanked with PBS at 600 nm. (FIG. 1A) azido incorporation into polysaccharide was then quantified via fluorescent labeling (FL) with normalization to refractive index (RI). MaxOD and End Of Fermentation time (EOF) are provided in (FIG. 1B) and (FIG. 1C), respectively. Polysaccharide was extracted using EtOH and CaCl2 and analyzed via SEC-RI for (FIG. 1D) polysaccharide titer. n=1-4, error bars=+/−StDev.
FIGS. 2A-2D Impact of 2AzGlcAc4 concentration on S. pneumoniae T14 growth and poly production in production medium supplemented with Galactose (30 g/L). […] (FIG. 2A) Growth was measured offline using a spectrophotometer blanked with PBS at 600 nm. At the end of fermentation, cultures were lysed with 0.1% NLS for 30 min. and polysaccharide was extracted via EtOH/CaCl2) precipitation. Polysaccharide titer (FIG. 2B) and size (FIG. 2C) were measured via SEC-RI and SEC-MALS, respectively. (FIG. 2D) azido incorporation was then quantified via fluorescent labeling (FL) and normalized to the refractive index (RI). n=3, error bars=+/−StDev.
FIGS. 3A-3E Impact of 2AzGlc concentration on S. pneumoniae T14 growth and polysaccharide production in production medium supplemented with Galactose (30 g/L). […] (FIG. 3A) Growth was measured offline using a spectrophotometer blanked with PBS at 600 nm. Cultures were lysed with 0.1% NLS for 30 min. and polysaccharide was extracted via EtOH/CaCl2) precipitation. Polysaccharide (FIG. 3B/FIG. 3C) titer and (FIG. 3D) size were measured via SEC-RI and SEC-MALS, respectively. (FIG. 3E) azido incorporation was then quantified via fluorescent labeling (FL) and normalized to the refractive index (RI). n=3, error bars=+/−StDev.
as §1

[4] = 2AzGlc titration, production media + Glucose (dextrose, 30 g/L)
[5] = 2AzGlc titration, production medium + Galactose (30 g/L)
[6] = azido feed DOE: Gal 30 g/L, initial 2AzGlc 0 mM, 2AzGlc feed stock 4 mM, pH 7.33, 300 rpm
[7] = azido feed DOE: Gal 30 g/L, initial 2AzGlc 0 mM, 2AzGlc feed stock 6.5 mM, pH 7.33, 300 rpm
[8] = azido feed DOE: Gal 30 g/L, initial 2AzGlc 0.1 mM, 2AzGlc feed stock 4 mM, pH 7.33, 300 rpm
[9] = azido feed DOE: Gal 30 g/L, initial 2AzGlc 0.1 mM, 2AzGlc feed stock 6.5 mM, pH 7.33, 300 rpm
[10] = azido feed DOE: Gal 40 g/L, initial 2AzGlc 0 mM, 2AzGlc feed stock 4 mM, pH 7.33, 300 rpm
[11] = azido feed DOE: Gal 40 g/L, initial 2AzGlc 0 mM, 2AzGlc feed stock 6.5 mM, pH 7.33, 300 rpm
[12] = azido feed DOE: Gal 40 g/L, initial 2AzGlc 0.1 mM, 2AzGlc feed stock 4 mM, pH 7.33, 300 rpm
[13] = azido feed DOE: Gal 40 g/L, initial 2AzGlc 0.1 mM, 2AzGlc feed stock 6.5 mM, pH 7.33, 300 rpm
[14] = azido sugar 20 mM without DMSO, production medium + Galactose (30 g/L)
[15] = initial galactose 40 g/L, initial 2AzGlc 0.1 mM, 4.0 mM 2AzGlc feed stock
[16] = screen, azido sugar 1 mM, only in production medium + Galactose
[17] = 2AzGlc titration 0-60 mM, production media + Glucose (dextrose, 30 g/L)

[N-]=[N+]=N[C@@H](C=O)[C@@H](O)[C@H](O)[C@H](O)CO [2AzGlc, 2-Azido-2-deoxy-D-glucose]
rate of galactose consumption, of the batch model (S. pneumoniae T14 [1]; 2AzGlc addition, production medium + Galactose (30 g/L)): ~70% | concentration at which negative effect on growth started (S. pneumoniae T14 [1]; [4]): 20 mM | growth with increasing 2AzGlc concentrations (S. pneumoniae T14 [1]; [5]): negatively impacted | MaxOD (S. pneumoniae T14 [1]; [6]): 9.78 and 9.56 | MaxOD (S. pneumoniae T14 [1]; [7]): 8.74 and 8.32 | MaxOD (S. pneumoniae T14 [1]; [8]): 8.96 and 8.13 | MaxOD (S. pneumoniae T14 [1]; [9]): 5.76 and 5.65 | MaxOD (S. pneumoniae T14 [1]; [10]): 9.78 and 7.39 | MaxOD (S. pneumoniae T14 [1]; [11]): 8.44 and 6.64 | MaxOD (S. pneumoniae T14 [1]; [12]): 8.53 and 8.4 | MaxOD (S. pneumoniae T14 [1]; [13]): 4.53 and 3.71 | growth (S. pneumoniae T14 [1]; [14]): strongly inhibited | OD600 nm at which growth stopped (S. pneumoniae T14 [1]; fed-batch, initial galactose 5.0 g/L, 0.25 mM 2AzGlc, regardless of feed rate): 3.0 | maximum OD600 nm (average) (S. pneumoniae T14 [1]; [15]): 8.5 | MaxOD600 nm (S. pneumoniae T14 [1]; pH 6.66, agitation 200 rpm): 11.7 | MaxOD600 nm (S. pneumoniae T14 [1]; pH 7, agitation 300 rpm): 11.3 and 12.9 | MaxOD600 nm (S. pneumoniae T14 [1]; pH 7.33, agitation 300 rpm): 10.5 and 10.4 | MaxOD (S. pneumoniae T14 [1]; production medium + Galactose (30 g/L) + 2AzGlc (0.25 mM), pH 6.33, agitation 100 rpm): 6.98 and 6.76 | MaxOD (S. pneumoniae T14 [1]; production medium + Galactose (30 g/L) + 2AzGlc (0.25 mM), pH 6.33, agitation 200 rpm): 6.81 | MaxOD (S. pneumoniae T14 [1]; production medium + Galactose (30 g/L) + 2AzGlc (0.25 mM), pH 6.33, agitation 300 rpm): 6.05 and 5.89 | MaxOD (S. pneumoniae T14 [1]; production medium + Galactose (30 g/L) + 2AzGlc (0.25 mM), pH 6.66, agitation 100 rpm): 8.96 | MaxOD (S. pneumoniae T14 [1]; production medium + Galactose (30 g/L) + 2AzGlc (0.25 mM), pH 6.66, agitation 300 rpm): 9.1 | MaxOD (S. pneumoniae T14 [1]; production medium + Galactose (30 g/L) + 2AzGlc (0.25 mM), pH 7, agitation 200 rpm): 9.38 | MaxOD (S. pneumoniae T14 [1]; production medium + Galactose (30 g/L) + 2AzGlc (0.25 mM), pH 7.33, agitation 100 rpm): 8.43 and 8.23 | MaxOD (S. pneumoniae T14 [1]; production medium + Galactose (30 g/L) + 2AzGlc (0.25 mM), pH 7.33, agitation 300 rpm): 8.54 and 8.26 | maximum OD (S. pneumoniae T14 [1]; [16]): reduced | MaxOD600 nm (S. pneumoniae T14 [2]; pH 6.33, agitation 100 rpm): 12.1 and 13.6 | MaxOD600 nm (S. pneumoniae T14 [2]; pH 6.33, agitation 300 rpm): 10.8 and 10.7 | MaxOD600 nm (S. pneumoniae T14 [2]; pH 7, agitation 100 rpm): 8.8 and 7.8 | MaxOD600 nm (S. pneumoniae T14 [2]; pH 7.33, agitation 100 rpm): 8.9 and 9.6 | MaxOD600 nm (S. pneumoniae T14 [2]; pH 7.33, agitation 200 rpm): 8.5 and 8.3 | max size reduction (S. pneumoniae T14 [3]; [17]): 78% | max titer loss (S. pneumoniae T14 [3]; [17]): 56% | concentration at which negative effect on poly production started (S. pneumoniae T14 [3]; [4]): 1 mM | polysaccharide titers with increasing 2AzGlc concentrations (S. pneumoniae T14 [3]; [5]): negatively impacted | Poly Titer (S. pneumoniae T14 [3]; [6]): 0.2358 mg/mL and 0.22 mg/mL | Poly Titer (S. pneumoniae T14 [3]; [7]): 0.1846 mg/mL and 0.189 mg/mL | Poly Titer (S. pneumoniae T14 [3]; [8]): 0.1856 mg/mL and 0.1876 mg/mL | Poly Titer (S. pneumoniae T14 [3]; [9]): 0.1266 mg/mL and 0.137 mg/mL | Poly Titer (S. pneumoniae T14 [3]; [10]): 0.2204 mg/mL and 0.1796 mg/mL | Poly Titer (S. pneumoniae T14 [3]; [11]): 0.1826 mg/mL and 0.1536 mg/mL | Poly Titer (S. pneumoniae T14 [3]; [12]): 0.1882 mg/mL and 0.1748 mg/mL | Poly Titer (S. pneumoniae T14 [3]; [13]): 0.1251 mg/mL and 0.1011 mg/mL | polysaccharide production (S. pneumoniae T14 [3]; [14]): strongly inhibited | polysaccharide titer (average) (S. pneumoniae T14 [3]; [15]): 0.1815 mg/mL | Poly Titer (S. pneumoniae T14 [3]; production media + 2AzGlc (10 mM), pH 6.33, agitation 100 rpm): 0.39 mg/mL | Poly Titer (S. pneumoniae T14 [3]; production media + 2AzGlc (10 mM), pH 6.33, agitation 300 rpm): 0.44 mg/mL and 0.42 mg/mL | Poly Titer (S. pneumoniae T14 [3]; production media + 2AzGlc (10 mM), pH 6.66, agitation 200 rpm): 0.52 mg/mL and 0.47 mg/mL | Poly Titer (S. pneumoniae T14 [3]; production media + 2AzGlc (10 mM), pH 7, agitation 100 rpm): 0.40 mg/mL and 0.41 mg/mL | Poly Titer (S. pneumoniae T14 [3]; production media + 2AzGlc (10 mM), pH 7, agitation 300 rpm): 0.43 mg/mL and 0.48 mg/mL | Poly Titer (S. pneumoniae T14 [3]; production media + 2AzGlc (10 mM), pH 7.33, agitation 100 rpm): 0.36 mg/mL and 0.37 mg/mL | Poly Titer (S. pneumoniae T14 [3]; production media + 2AzGlc (10 mM), pH 7.33, agitation 200 rpm): 0.41 mg/mL and 0.44 mg/mL | Poly Titer (S. pneumoniae T14 [3]; production media + 2AzGlc (10 mM), pH 7.33, agitation 300 rpm): 0.41 mg/mL | Titer (S. pneumoniae T14 [3]; production media + Glucose (dextrose, 30 g/L), media pH 7, 2AzGlc 1 mM): 0.63 mg/mL | Titer (S. pneumoniae T14 [3]; production media + Glucose (dextrose, 30 g/L), media pH 7, 2AzGlc 5 mM): 0.53 mg/mL | Titer (S. pneumoniae T14 [3]; production media + Glucose (dextrose, 30 g/L), media pH 7, 2AzGlc 10 mM): 0.43 mg/mL | Titer (S. pneumoniae T14 [3]; production media + Glucose (dextrose, 30 g/L), media pH 7, 2AzGlc 20 mM): 0.32 mg/mL | Titer (S. pneumoniae T14 [3]; production media + Glucose (dextrose, 30 g/L), media pH 7.33, 2AzGlc 20 mM): 0.3 mg/mL | Titer (S. pneumoniae T14 [3]; production media + Glucose (dextrose, 30 g/L), media pH 7.33, 2AzGlc 40 mM): 0.28 mg/mL | Titer (S. pneumoniae T14 [3]; production media + Glucose (dextrose, 30 g/L), media pH 7.33, 2AzGlc 60 mM): 0.28 mg/mL | Polysacch. Titer (S. pneumoniae T14 [3]; pH 6.33, agitation 100 rpm): 0.195 mg/mL and 0.193 mg/mL | Polysacch. Titer (S. pneumoniae T14 [3]; pH 6.33, agitation 200 rpm): 0.171 mg/mL | Polysacch. Titer (S. pneumoniae T14 [3]; pH 6.33, agitation 300 rpm): 0.087 mg/mL and 0.149 mg/mL | Polysacch. Titer (S. pneumoniae T14 [3]; pH 6.66, agitation 100 rpm): 0.247 mg/mL | Polysacch. Titer (S. pneumoniae T14 [3]; pH 6.66, agitation 300 rpm): 0.227 mg/mL | Polysacch. Titer (S. pneumoniae T14 [3]; pH 7, agitation 200 rpm): 0.269 mg/mL | Polysacch. Titer (S. pneumoniae T14 [3]; pH 7.33, agitation 100 rpm): 0.235 mg/mL and 0.216 mg/mL | Polysacch. Titer (S. pneumoniae T14 [3]; pH 7.33, agitation 300 rpm): 0.228 mg/mL and 0.211 mg/mL | polysaccharide titer (S. pneumoniae T14 [3]; [16]): reduced
